This test addresses T1, IL-1R1 (interleukin-1 receptor, type I) (Homo sapiens, UniProt P14778).
T1 construct: gene IL1R1
T1 sequence (P14778 18-569): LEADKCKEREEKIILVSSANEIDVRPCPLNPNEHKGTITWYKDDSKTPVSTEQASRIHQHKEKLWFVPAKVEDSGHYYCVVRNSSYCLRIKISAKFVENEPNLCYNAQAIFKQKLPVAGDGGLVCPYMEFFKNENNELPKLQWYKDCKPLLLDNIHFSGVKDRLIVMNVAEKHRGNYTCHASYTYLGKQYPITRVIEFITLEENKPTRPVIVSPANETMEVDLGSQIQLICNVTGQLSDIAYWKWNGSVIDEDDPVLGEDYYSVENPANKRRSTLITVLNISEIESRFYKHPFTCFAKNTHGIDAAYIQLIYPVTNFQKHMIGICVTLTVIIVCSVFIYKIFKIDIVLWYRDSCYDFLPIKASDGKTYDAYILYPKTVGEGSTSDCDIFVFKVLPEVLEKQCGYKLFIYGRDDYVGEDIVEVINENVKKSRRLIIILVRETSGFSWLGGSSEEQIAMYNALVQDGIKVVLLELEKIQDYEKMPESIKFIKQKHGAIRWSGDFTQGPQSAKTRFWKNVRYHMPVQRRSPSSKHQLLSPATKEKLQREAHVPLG
Briefly: SPR (ProteOn XPR36), IL-1R1 immobilized by amine coupling, […] Langmuir kinetic fit; equilibrium analysis gave […]. The format is binding.

The text below walks through data of article PMC6073580, “DPIE [2-(1,2-diphenyl-1H-indol-3-yl)ethanamine] Augments Pro-Inflammatory Cytokine Production in IL-1β-Stimulated Primary Human Oral Cells” (International Journal of Molecular Sciences, 2018).

A word on the Kd: it is the equilibrium constant for the complex coming apart. `NCCc1c(-c2ccccc2)n(-c2ccccc2)c2ccccc12` [DPIE, 2-(1,2-diphenyl-1H-indol-3-yl)ethanamine]: the Kd came to 316 µM.
